From publication PMC7281349, “Anti-Inflammatory and Protein Tyrosine Phosphatase 1B Inhibitory Metabolites from the Antarctic Marine-Derived Fungal Strain Penicillium glabrum SF-7123” (Marine Drugs, 2020)

Legend:
[1] = tested on: LPS-stimulated BV2 microglial cells; assay: NO production (nitrite, Griess reaction) in LPS-stimulated BV2 microglial cells; type: cell-based, murine; settings: for Effect on alteration of NO production: 80.0 μM; for IC50: Mus musculus, BV-2, mean ± SD of triplicate experiments, read-out: NO Inhibitory Effects, BV2 Cells (IC50)
Excerpt: (§1) LPS is a major cell wall component of Gram-negative bacteria. LPS is an intensive stimulator of macrophages and microglia, and thus treatment of these cells with LPS is frequently employed in research related to the inflammatory phenomenon. In the current study, all the isolated compounds (1–5) were investigated for their anti-neuroinflammatory and anti-inflammatory effects by examining their effects on the overproduction of NO and PGE2 in LPS-stimulated BV2 microglia and RAW264.7 macrophage cells. LPS stimulation increased the production of NO and PGE2 in both cell lines. […] Thus, this compound was selected to further examine the anti-inflammatory effect and to reveal its underlying mechanisms. […] Moreover, compound 2 attenuated the protein expression of iNOS and COX-2 in a dose-dependent manner in LPS-stimulated BV2 cells (Figure 3A).
(§2) RAW264.7 and BV2 cells were maintained at 5 × 10^5 cells/mL in Dulbecco’s modified Eagle’s medium (DMEM) containing 10% fetal bovine serum (FBS), penicillin G (100 U/mL), streptomycin (100 mg/L), and L-glutamine (2 mM) and incubated at 37 °C in a humidified atmosphere containing 5% CO2. DMEM, FBS, and other tissue culture reagents were purchased from Gibco BRL Co. Cell viability was evaluated by the MTT assay as described in our previous report.
To determine the nitrite concentration in the medium as an indicator of NO production, the Griess reaction was carried out as described in our previous report.

[2] = biological target: T1, PTP1B (human, recombinant) (Homo sapiens, UniProt P18031); assay: PTP1B enzyme assay with pNPP substrate; type: biochemical; settings: for inhibition at 50 µM: 50 μM compound, read-out: Inhibitory Effects on PTP1B, inhibition percentage at 50 μM; for inhibition at 50 µM / IC50: pNPP substrate; for Mode of PTP1B inhibition (Lineweaver–Burk plot): pNPP 0.25-2.0 mM, Km and Vmax analysis; for IC50: mean ± SD of triplicate experiments, read-out: Inhibitory Effects on PTP1B (IC50)
T1 construct: purchased BIOMOL Research Laboratories, Inc
T1 sequence (P18031 1-435): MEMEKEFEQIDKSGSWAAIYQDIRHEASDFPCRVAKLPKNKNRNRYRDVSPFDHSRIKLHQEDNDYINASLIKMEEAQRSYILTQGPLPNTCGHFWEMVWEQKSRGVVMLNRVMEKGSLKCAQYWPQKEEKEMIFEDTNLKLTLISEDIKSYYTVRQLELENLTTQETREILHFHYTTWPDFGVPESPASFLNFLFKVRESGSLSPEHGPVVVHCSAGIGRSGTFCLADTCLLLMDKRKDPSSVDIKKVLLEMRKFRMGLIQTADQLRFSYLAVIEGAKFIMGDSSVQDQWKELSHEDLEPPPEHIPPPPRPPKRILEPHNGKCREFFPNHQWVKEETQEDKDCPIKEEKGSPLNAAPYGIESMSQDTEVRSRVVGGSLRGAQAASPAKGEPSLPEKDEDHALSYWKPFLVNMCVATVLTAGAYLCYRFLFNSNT
Method: In addition to the investigation of the anti-inflammatory and anti-neuroinflammatory effects of the isolated metabolites in cellular models, this study attempted to assess the inhibitory effect of the isolated compounds against PTP1B activity.
PTP1B (human, recombinant) used in the current study was purchased from BIOMOL Research Laboratories, Inc. PTP1B enzyme activity was determined using 2 mM of pNPP as a substrate in 50 mM citrate buffer solution (pH 6.0, 0.1 M NaCl, 1 mM EDTA, and 1 mM dithiothreitol). The reaction mixture was incubated at 30 °C for 30 min, and the reaction was terminated by the addition of 1 N NaOH. The amount of p-nitrophenol produced by the enzyme was estimated by measuring the increase in absorbance at 405 nm. The nonenzymatic hydrolysis of 2 mM pNPP was corrected by measuring the increase in absorbance at 405 nm in the absence of PTP1B [31]. The kinetic analysis involved the following: the assays were performed using a reaction mixture that contained different concentrations of pNPP (0.25 mM, 0.5 mM, 1.0 mM, and 2.0 mM) as a PTP1B substrate in the absence or presence of compounds 4 and 5. The Michaelis–Menten constant (Km) and maximum velocity (Vmax) of PTP1B were determined by the Lineweaver–Burk plot using the GraphPad Prism® 4 program (GraphPad Software Inc., San Diego, CA, USA).

[3] = tested on: LPS-stimulated BV2 microglial cells; assay: PGE2 production in LPS-stimulated BV2 cells; type: cell-based, murine; settings: Mus musculus, BV-2, mean ± SD of triplicate experiments, read-out: PGE2 Inhibitory Effects, BV2 Cells (IC50)
Excerpt: as §1, §2
The level of PGE2 present in each sample was determined using a commercially available kit from R&D Systems (Minneapolis, MN, USA); the details of this assay were described previously. Three independent assays were performed according to the manufacturer’s instructions.

[4] = tested on: PC12 pheochromocytoma cells; set-up: method as in doi:10.1002/1099-0690(200105)2001:10<1963::AID-EJOC1963>3.0.CO; settings: cited from earlier work
[5] = tested on: iNOS and COX-2 protein expression in LPS-stimulated BV2 cells; assay: Western blot of iNOS and COX-2 in LPS-stimulated BV2 cells; type: cell-based, murine; settings: 1.0, 2.0, 4.0 μM, dose-dependent, LPS 1 μg/mL 24 h
Method: Cells were pre-treated with compound 2 (1.0, 2.0, and 4.0 μM) for 3 h and stimulated with LPS (1 μg/mL) for 24 h. The representative blots of three independent analyses for iNOS and COX-2 expression are shown.
(§3) Western blot analysis was carried out according to our previous report. Briefly, cells were harvested by centrifugation at 200 g for 3 min, followed by a washing step with RIPA lysis buffer (25 mM Tris-HCl buffer (pH 7.6), 150 mM NaCl, 1% NP-40, 1% sodium deoxycholate, and 0.1% SDS). Primary antibodies (COX-2: sc-1745; iNOS: sc-650; IкB-α: sc-371; p-IкB-α: sc-8404; p50: sc-7178; and p65: sc-8008) were purchased from Santa Cruz Biotechnology, and secondary antibodies (mouse: ap124p; goat: ap106p; and rabbit: ap132p) were purchased from Millipore.

[6] = tested on: NF-κB pathway in LPS-stimulated BV2 cells; assay: NF-κB pathway activation (western blot, DNA-binding ELISA) in LPS-stimulated BV2 cells; type: cell-based, murine
Method: After pre-treatment with compound 2 (1.0, 2.0, and 4.0 μM) for 3 h, the cells were stimulated with LPS for 1 h. (A–F) Proteins were obtained, and specific anti-IκB-α, anti-p- IκB-α, anti-p65, and anti-p50 antibodies were employed for western blot analysis. Representative blots of three independent experiments are shown. Band intensity was quantified by densitometry and normalized to β-actin for the cytoplasmic fraction and to proliferating cell nuclear antigen (PCNA) for the nuclear fraction. (G, H) NF-κB binding activity in the nuclear fraction was determined using an NF-κB ELISA kit by Active Motif (* p < 0.05; ** p < 0.01; *** p < 0.001) and then compared to that of the LPS-treated group.
Western blot analysis was carried out according to our previous report. Briefly, cells were harvested by centrifugation at 200 g for 3 min, followed by a washing step with RIPA lysis buffer (25 mM Tris-HCl buffer (pH 7.6), 150 mM NaCl, 1% NP-40, 1% sodium deoxycholate, and 0.1% SDS). […]
The DNA-binding activity of NF-κB in the nuclear extracts was measured using the TransAM® kit (Active Motif, Carlsbad, CA, USA); three independent assays for each sample were conducted according to the manufacturer’s instructions.

[7] = tested on: IL-1β, TNF-α, IL-6, IL-12 mRNA in LPS-stimulated BV2 cells; assay: qRT-PCR of pro-inflammatory cytokine mRNA in LPS-stimulated BV2 cells; type: cell-based, murine; settings: 3 h pre-treatment, LPS 1 µg/mL for 12 h
[8] = tested on: MAPK pathways (ERK, JNK, p38 MAPK) in LPS-stimulated BV2 cells; assay: MAPK phosphorylation (western blot) in LPS-stimulated BV2 cells; type: cell-based, murine; settings: 1.0, 2.0, 4.0 μM pre-treatment 3 h, LPS 1 h
Method: After pre-treatment with compound 2 (1.0, 2.0, and 4.0 μM) for 3 h, the cells were stimulated with LPS for 1 h. Western blot analysis was performed to determine the phosphorylated levels of extracellular signal-regulated kinases (ERK) (p-ERK), c-Jun N-terminal kinases (JNK) (p-JNK), and p38 MAPK (p-p38 MAPK). Representative blots of three independent experiments are shown. Band intensity was quantified by densitometry and normalized to β-actin. * p < 0.05; *** p < 0.001 as compared to the LPS-treated group.
as §3

endothelin binding = settings: cited from earlier work
HIV-1-integrase = settings: cited from earlier work

| SMILES | Effect on alteration of NO production [1] | IC50 [1] | inhibition at 50 µM [2] | IC50 [3] | Neurite outgrowth in PC12 pheochromocytoma cells [4] | Protein expression of iNOS and COX-2 [5] | Activation of the NF-κB pathway (IκB-α phosphorylation/degradation, p50/p65 nuclear translocation) ([6]; 1.0, 2.0, 4.0 μM pre-treatment 3 h, LPS 1 h) | DNA binding activity of the p65 subunit ([6]; nuclear fraction, NF-κB ELISA kit) | mRNA over-expression of IL-1β, TNF-α, IL-6 and IL-12 [7] | Increased phosphorylation levels of ERK and JNK MAPKs [8] | LPS-induced p38 MAPK phosphorylation [8] | Endothelin binding inhibition (endothelin binding) | Mode of PTP1B inhibition (Lineweaver–Burk plot) [2] | IC50 [2] | HIV-1-integrase inhibition (HIV-1-integrase) |
| --- | --- | --- | --- | --- | --- | --- | --- | --- | --- | --- | --- | --- | --- | --- | --- |
| COc1cc2c(cc1O)OCC1=C2O[C@@H](C)CC1=O [Compound 1, 9-O-methylneuchromenin] | did not significantly affect | > 80 µM | 45.7% | > 80 µM |  |  |  |  |  |  |  |  |  |  |  |
| C[C@H]1CC(=O)C2=C(O1)c1cc(O)c(O)cc1OC2 [Compound 2, neuchromenin] |  | 2.7 ± 0.1 µM | 37.8% | 3.2 ± 0.2 µM | induced neurite outgrowth | attenuated | suppressed | decreased | effectively decreased | unchanged | inhibited |  |  |  |  |
| COC(=O)c1cc(O)cc(OC)c1Oc1cc(C)cc(O)c1C(=O)O [Compound 3, asterric acid] | did not significantly affect | > 80 µM | 13.7% | > 80 µM |  |  |  |  |  |  |  | endothelin binding inhibitor |  |  |  |
| CC1=Cc2oc3cc(O)c(O)cc3c(=O)c2CO1 [Compound 4, myxotrichin C] |  | 28.1 ± 1.4 µM |  | 25.2 ± 1.3 µM |  |  |  |  |  |  |  |  | noncompetitive inhibitor | 19.2 ± 1 µM |  |
| C/C=C/c1cc(=O)c(C(=O)c2c(OC)cc(OC)cc2C(=O)OC)co1 [Compound 5, deoxyfunicone] |  | 10.6 ± 0.5 µM |  | 32.3 ± 1.6 µM |  |  |  |  |  |  |  |  | competitive | 24.3 ± 1.2 µM | HIV-1-integrase inhibitor |
